The subject of data set [1] is C57BL/6N mouse plasma. Put plainly: Plasma protein binding (ultrafiltration) in mouse plasma. The format is in vitro ADME. The procedure:
(§1) After incubation, plasma aliquots (200 μL) were transferred to the preconditioned Amicon filters, which were centrifuged (12000g, 30 min, 25 °C). Filters and tubes were separately measured in a gamma counter, and the obtained data were decay corrected. Percent plasma protein binding was calculated as percent radioactivity in the filter relative to total radioactivity (filter and tube).

Data set [2] has as its target T1, Abcb1a (Mus musculus, UniProt P21447). The data set is described as follows: PET imaging of radiotracer brain distribution (Kb,brain) in C57BL/6N wild-type, Abcb1a/1b(−/−) and Abcb1a/1b(+/−) mice and tariquidar concentration–response. The procedure:
(§2) Animal respiratory rate and body temperature were constantly monitored (SA Instruments Inc., Stony Brook, NY, USA), and the isoflurane level was adjusted (1.5–2% in oxygen) to achieve a constant and sufficient depth of anesthesia. Anesthesia was maintained for the whole pretreatment and imaging period. Following administration, anatomical magnetic resonance imaging (MRI) was performed on a 1 T benchtop MRI (ICON, Bruker BioSpin GmbH, Ettlingen, Germany) using a modified 3D T1-weighted gradient echo sequence (T1-FLASH) and the following imaging parameters: echo time (TE) = 4.7 ms; repetition time (TR) = 27 ms; flip angle (FA) = 25°; field of view (FOV) = 7.6 × 2.6 × 2.4 cm; matrix = 380 × 130; 32 slices; slice thickness = 750 μm; total imaging time = 22 min. Following MRI, the animal bed was transferred into the gantry of a microPET scanner (Focus 220, Siemens Medical Solutions, Knoxville, TN, USA), and a 10 min transmission scan using a ^57Co point source was recorded.
(§3) After completion of the imaging procedure, a terminal blood sample was withdrawn under isoflurane anesthesia from the retro-orbital sinus vein, and the animals were sacrificed by cervical dislocation. Blood was centrifuged (17000g, 4 °C, 4 min) to obtain plasma, and whole brains were removed. […] The measured radioactivity data were corrected for radioactive decay and expressed as standardized uptake value ((radioactivity per g/injected radioactivity) × body weight). The remainder of the plasma samples was stored at −80 °C until measurement of tariquidar plasma concentrations using a previously described combined liquid chromatography tandem mass spectrometry (LC/MS) assay.[17]
(§4) Images were reconstructed using Fourier rebinning of the 3D sonograms followed by two-dimensional filtered back projection with a ramp filter, resulting in an image voxel size of 0.4 × 0.4 × 0.796 mm^3. A standard data correction protocol (normalization, attenuation, and decay correction) was applied to the PET data. The PET units were converted into units of radioactivity concentration by applying a calibration factor derived from imaging of a cylindrical phantom with a known ^11C-radioactivity concentration. Using the image analysis software Amide,[31] whole brain was manually outlined on the PET images, and time–activity curves, expressed in standardized uptake value, were derived.
(§5) Concentration–response relationships were analyzed by nonlinear regression analysis based on a sigmoidal model with variable slope using Prism 6 software.

The subject of data set [3] is Abcb1a. The data set is described as above. As for the experimental part: as §2, §3, §4, §5
Data set [4] addresses Abcb1a/1b (Mus musculus, UniProt P21447). The following applies: for Kp,brain: wild-type FVB/N mice, 25 min after injection.
Description: Blood and brain were transferred to preweighed tubes and measured for radioactivity in a gamma counter. The measured radioactivity data were corrected for radioactive decay, and Kb,brain values were calculated.
The target in data set [5] is T1, Abcb1a. The following applies: for Kp,brain,VPM or Kp,brain,dLOP fold increase, tariquidar vs vehicle: metabolite corrected; for Kp,brain for unchanged parent tracer (Kp,brain,VPM or Kp,brain,dLOP): 25 min, corrected for radiolabeled metabolites.
Description: (§8) In one cohort, all procedures were performed in isoflurane anesthetized (1.5–2% in oxygen) animals resulting in a total anesthesia length of 160 min (= long anesthesia). In the second cohort, pretreatment and radiotracer injection were performed in awake animals which were only shortly anesthetized prior to retro-orbital blood sampling, resulting in a total anesthesia length of 5 min (= short anesthesia). […] Blood was centrifuged to obtain plasma, and whole brains were removed. To plasma and homogenized brain tissue were added unlabeled verapamil (10 mg/mL in water, 100 μL) or N-desmethyl-loperamide (10 mg/mL in water/acetonitrile; 1/1, v/v, 100 μL), and proteins were precipitated by the addition of acetonitrile (1 μL per μL of plasma and 0.5 mL per brain). The homogenates were vortexed and then centrifuged (12000g, 5 min, 21 °C). Each supernatant (plasma, brain, 3 μL each) and diluted radiotracer solution as reference were spotted on thin-layer chromatography (TLC) plates (silica gel 60F 254 nm, 20 × 20 cm; Merck, Darmstadt, Germany), and plates were developed in ethyl acetate/triethylamine (9/1, v/v). Detection was performed by placing the TLC plates on multisensitive phosphor screens (PerkinElmer Life Sciences, Waltham, MA). The screens were scanned at 300 dpi resolution using a PerkinElmer Cyclone Plus Phosphor Imager (PerkinElmer Life Sciences).
The conditions of data set [6]: short anesthesia (5 min), tariquidar 15 mg/kg, 25 min after injection.
Description: as §8
Data set [7] has as its system human plasma. Put plainly: Plasma protein binding (ultrafiltration) in human plasma. The format is in vitro ADME. The conditions noted are these: without tariquidar. As for the experimental part:
as §1

The target of data set [8] is T2, ABCB1 (Homo sapiens, UniProt P08183). The conditions noted are these: cited from earlier work.
Data set [9] relates to ABCB1. The arrangement: method as in PMID 20016890. The following applies: rats ref 35; read-out: in vivo IC50 of tariquidar for enhancement of brain distribution of (R)-[11C]verapamil; cited from earlier work.
Data set [10] concerns the target T1, Abcb1a. Put plainly: Bidirectional transport assay in Abcb1a-transfected LLC cells (LLC-Abcb1a) without/with tariquidar. The conditions noted are these: for IC50: normalized TR over 6 h, estimated by sigmoidal fit. As for the experimental part:
LLC-PK1 cells transduced with human MDR1 (LLC-ABCB1) or murine Mdr1a (LLC-Abcb1a) were kindly provided by Prof. P. Borst and Dr. A. Schinkel (The Netherlands Cancer Institute, Amsterdam, The Netherlands).
(§6) Tariquidar or solvent was added to both compartments. […] To determine membrane integrity, transepithelial electrical resistance (TEER) and, in representative wells, [^14C]mannitol diffusion were measured with criteria for exclusion described earlier.[27]
(§7) Apparent substrate permeability (Papp) from the basolateral to the apical compartment (b–A) and vice versa (a–B) was calculated using the following equation: [drawing 1] where dQ/dt (disintegration/min) is the permeability rate of the substrate into the sample compartment, A the growth area of the monolayer, and C0 the initial substrate concentration in the donor compartment. The transport ratio (TR) was calculated by dividing Papp(b–A) by Papp(a–B). […] With Prism6 software (GraphPad Software, La Jolla, CA, USA) a sigmoidal model with variable slope was used to analyze concentration–response relationships by nonlinear regression.

The target in data set [11] is T2, ABCB1.
Data set [12] has as its target T2, ABCB1. The data set is described as follows: cell-based. The following applies: ABCB1-transfected LLC cells, normalized TR over 6 h, estimated by sigmoidal fit.
The nature of data set [13]: Tariquidar plasma concentration at the end of the PET scan (LC/MS). The following applies: 30 mg/kg iv. The format is in vivo, mouse.
For data set [14], the system named is human plasma. The arrangement: method as in PMID 23340958. The conditions noted are these: human plasma ref 38; cited from earlier work.
Data set [15] deals with LLC wild-type cells. The conditions noted are these: LLC wild-type cells (data not shown). As for the experimental part: as §6, §7

Where two headings read alike, the source gives them in different places. Marks after values point to notes of the source that are not given here.

T1 sequence (P21447 whole entry): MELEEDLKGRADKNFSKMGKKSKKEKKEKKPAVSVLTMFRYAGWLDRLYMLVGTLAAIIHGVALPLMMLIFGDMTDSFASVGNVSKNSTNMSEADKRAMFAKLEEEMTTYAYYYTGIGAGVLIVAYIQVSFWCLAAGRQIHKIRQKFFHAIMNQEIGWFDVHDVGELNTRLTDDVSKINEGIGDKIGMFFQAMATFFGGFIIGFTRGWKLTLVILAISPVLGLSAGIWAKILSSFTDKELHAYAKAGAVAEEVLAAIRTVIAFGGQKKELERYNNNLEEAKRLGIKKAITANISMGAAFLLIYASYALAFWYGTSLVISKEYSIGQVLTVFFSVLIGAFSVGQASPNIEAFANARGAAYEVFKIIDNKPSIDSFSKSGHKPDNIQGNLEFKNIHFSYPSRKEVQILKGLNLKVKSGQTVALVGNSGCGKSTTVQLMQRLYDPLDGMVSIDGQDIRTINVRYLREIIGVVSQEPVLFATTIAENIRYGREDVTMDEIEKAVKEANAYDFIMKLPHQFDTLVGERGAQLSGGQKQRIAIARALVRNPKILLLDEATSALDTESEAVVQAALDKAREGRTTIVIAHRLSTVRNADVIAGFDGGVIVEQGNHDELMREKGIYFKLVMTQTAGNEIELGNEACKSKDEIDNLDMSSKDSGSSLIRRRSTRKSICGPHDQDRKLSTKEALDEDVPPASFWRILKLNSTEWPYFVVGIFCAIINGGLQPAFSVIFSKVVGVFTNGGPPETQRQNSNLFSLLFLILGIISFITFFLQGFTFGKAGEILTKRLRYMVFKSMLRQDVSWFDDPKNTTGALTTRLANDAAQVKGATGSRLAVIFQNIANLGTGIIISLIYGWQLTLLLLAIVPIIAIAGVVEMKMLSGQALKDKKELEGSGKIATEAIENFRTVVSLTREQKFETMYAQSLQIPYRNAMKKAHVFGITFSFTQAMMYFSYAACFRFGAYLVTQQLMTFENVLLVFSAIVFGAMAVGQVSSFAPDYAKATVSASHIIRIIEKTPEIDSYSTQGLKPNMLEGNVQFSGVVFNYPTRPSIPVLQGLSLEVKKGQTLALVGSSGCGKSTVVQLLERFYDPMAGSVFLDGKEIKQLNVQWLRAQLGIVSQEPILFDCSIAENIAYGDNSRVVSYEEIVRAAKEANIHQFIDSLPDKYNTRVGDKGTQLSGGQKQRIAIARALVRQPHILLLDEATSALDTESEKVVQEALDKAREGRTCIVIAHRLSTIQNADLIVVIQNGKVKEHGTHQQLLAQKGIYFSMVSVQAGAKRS
Chain of Abcb1a/1b (P21447 whole entry): as above
T2 sequence (P08183 whole entry): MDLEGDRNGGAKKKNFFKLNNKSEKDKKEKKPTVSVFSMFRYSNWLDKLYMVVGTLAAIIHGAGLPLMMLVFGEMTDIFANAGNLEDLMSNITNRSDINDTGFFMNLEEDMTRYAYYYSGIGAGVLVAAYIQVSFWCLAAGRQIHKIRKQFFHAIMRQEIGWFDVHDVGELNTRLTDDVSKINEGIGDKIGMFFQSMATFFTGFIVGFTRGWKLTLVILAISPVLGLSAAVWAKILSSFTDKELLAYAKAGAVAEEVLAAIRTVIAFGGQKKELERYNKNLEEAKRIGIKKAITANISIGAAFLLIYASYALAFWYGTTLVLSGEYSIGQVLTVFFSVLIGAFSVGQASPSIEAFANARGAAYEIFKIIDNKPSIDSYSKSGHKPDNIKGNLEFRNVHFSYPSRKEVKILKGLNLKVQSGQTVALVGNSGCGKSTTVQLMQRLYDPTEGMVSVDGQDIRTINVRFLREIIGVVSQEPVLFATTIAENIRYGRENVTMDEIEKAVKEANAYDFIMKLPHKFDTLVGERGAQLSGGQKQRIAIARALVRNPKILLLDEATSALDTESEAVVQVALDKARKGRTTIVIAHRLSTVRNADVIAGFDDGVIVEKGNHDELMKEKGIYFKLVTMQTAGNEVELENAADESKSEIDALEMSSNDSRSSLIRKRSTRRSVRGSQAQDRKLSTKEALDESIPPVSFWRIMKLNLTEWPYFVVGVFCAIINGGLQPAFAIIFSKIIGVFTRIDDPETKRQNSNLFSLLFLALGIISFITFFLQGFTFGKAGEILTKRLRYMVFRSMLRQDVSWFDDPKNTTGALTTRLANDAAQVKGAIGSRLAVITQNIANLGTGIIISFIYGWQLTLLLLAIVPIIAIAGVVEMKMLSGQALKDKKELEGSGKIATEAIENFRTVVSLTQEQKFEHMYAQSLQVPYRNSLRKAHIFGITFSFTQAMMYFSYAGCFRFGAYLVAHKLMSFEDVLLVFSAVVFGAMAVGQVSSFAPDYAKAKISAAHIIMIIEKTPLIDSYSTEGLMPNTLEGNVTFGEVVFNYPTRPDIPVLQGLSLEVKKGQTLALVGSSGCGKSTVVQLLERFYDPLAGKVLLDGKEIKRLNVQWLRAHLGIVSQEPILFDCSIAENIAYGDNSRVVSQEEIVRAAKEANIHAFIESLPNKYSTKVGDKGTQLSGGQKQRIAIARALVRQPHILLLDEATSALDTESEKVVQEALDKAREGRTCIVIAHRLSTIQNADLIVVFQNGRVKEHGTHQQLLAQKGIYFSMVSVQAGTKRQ

Consider `CNC(=O)C(CCN1CCC(O)(c2ccc(Cl)cc2)CC1)(c1ccccc1)c1ccccc1` [[^11C]-N-desmethyl-loperamide], for which the “percentage of non-protein bound radiotracer” value was found to be 12.0 ± 1.0% in [1] (with tariquidar (2400 nM)), 14.5 ± 1.8% in [1] (without tariquidar) and 13.9 ± 0.7% in [7]. Also, the “brain-to-blood concentration ratio (Kb,brain)” value in [2] (heterozygous Abcb1a/1b(+/−) mice) was determined as 1.54 ± 0.19; in data set [2] (vehicle treated C57BL/6N wild-type mice, end of PET scan (50–60 min), total radioactivity), 1.42 ± 0.16; in data set [2] (wild-type mice after 30 mg/kg tariquidar iv 2 h before PET), 2.58 ± 0.44; in data set [3] (vehicle treated homozygous Abcb1a/1b(−/−) mice), 3.93 ± 0.36. In addition, the “increase in Kb,brain over vehicle treated wild-type mice” value in data set [2] (heterozygous Abcb1a/1b(+/−) mice, not significant) is 1.1 fold; in data set [3] (homozygous Abcb1a/1b(−/−) mice), 2.8 fold. In addition, the “blood radioactivity concentrations after tariquidar pretreatment compared to vehicle” value in data set [3] (C57BL/6N wild-type mice, end of PET scan) is “increased”. The “Kb,brain fold increase, Abcb1a/1b(−/−) vs wild-type” value was 13.8 fold in [4] (awake) and 5.7 fold in [4] (isoflurane). Besides, the “Kp,brain fold increase, Abcb1a/1b(−/−) vs wild-type” value is reported as 13.7 fold in [4] (awake) and 6.0 fold in data set [4] (isoflurane). The “Kp,brain” value in [4] (awake) stood at 0.20 ± 0.05; in data set [4] (isoflurane) it was 0.20 ± 0.04. For the same molecule, the “Kb,brain fold increase, tariquidar vs vehicle” value in data set [5] (long anesthesia (160 min)) was 4.0 fold; in data set [5] (short anesthesia (5 min)) it was 7.0 fold. Moreover, the “Kp,brain fold increase, tariquidar vs vehicle” value in [5] (long anesthesia (160 min)) was 3.7 fold; in [5] (short anesthesia (5 min)) it was 6.6 fold. Also, the “Kp,brain,VPM or Kp,brain,dLOP fold increase, tariquidar vs vehicle” value stood at 18.3 fold in data set [5] (long anesthesia (160 min)) and 9.6 fold in data set [5] (short anesthesia (5 min)). Besides, the “Kp,brain for unchanged parent tracer (Kp,brain,VPM or Kp,brain,dLOP)” value in data set [5] (long anesthesia (160 min), tariquidar 15 mg/kg) is recorded as 7.34 ± 0.58; in data set [5] (long anesthesia (160 min), vehicle), 0.40 ± 0.16; in [5] (short anesthesia (5 min), tariquidar 15 mg/kg), 4.85 ± 0.29 ^b; in data set [5] (short anesthesia (5 min), vehicle), 0.51 ± 0.18. Also, in [6], the “percentage of unchanged radiotracer in brain” value is reported as 70 ± 11%. In addition, the “percentage of unchanged radiotracer in plasma” value is 18 ± 1% in [6] and 18 ± 1 ^d % in data set [6] (listed as [^11C]-N-Desmethyl-loperamide). In data set [8] (humans, compared with PET scans without tariquidar ref 18-21), the “increase in distribution to the human brain following administration of tariquidar” value is given as 2 to 5 times.
Regarding `COc1cc2c(cc1OC)CN(CCc1ccc(NC(=O)c3cc(OC)c(OC)cc3NC(=O)c3cnc4ccccc4c3)cc1)CC2` [tariquidar], the IC50 (commonly the midpoint of a concentration-inhibition curve) in [9] is 0.65 µM; in data set [10] (IC50 of tariquidar for inhibition of [3H]-N-desmethyl-loperamide transport, Abcb1a-transfected LLC cells), 0.006 µM; in data set [10] (IC50 of tariquidar for inhibition of [3H]verapamil transport, Abcb1a-transfected LLC cells), 0.0179 µM; in data set [2] it was 1.33 µM; in data set [2] (in vivo IC50 of tariquidar (plasma concentration) for increase in Kb,brain of (R)-[11C]verapamil, C57BL/6N wild-type mice, normalized to Abcb1a/1b(−/−) mice), 1.05 µM; in data set [2] (unbound tariquidar in vivo IC50, (R)-[11C]verapamil, mice, in vivo IC50 corrected for plasma protein binding of tariquidar), 0.0066 µM. For the same molecule, the IC50 is 0.0084 µM in data set [2] (unbound tariquidar in vivo IC50, [11C]-N-desmethyl-loperamide, mice, in vivo IC50 corrected for plasma protein binding of tariquidar); 0.009 µM in data set [12] (IC50 of tariquidar for inhibition of [3H]-N-desmethyl-loperamide transport); 0.0172 µM in data set [12] (IC50 of tariquidar for inhibition of [3H]verapamil transport); 2.25 µM in data set [8] (read-out: in vivo IC50 of tariquidar for enhancement of brain distribution of (R)-[11C]verapamil, humans ref 19). Moreover, the “Hill slope, inhibition of [3H]-N-desmethyl-loperamide transport” value amounted to 1.3 in data set [10] (Abcb1a-transfected cells) and 2.1 in [11] (ABCB1-transfected cells). Besides, the figures for the “Hill slope, inhibition of [3H]verapamil transport” value in data set [10] (Abcb1a-transfected cells) and in [11] (ABCB1-transfected cells) were 2.6 and 10.8, respectively. Moreover, the “Hill slope, Kb,brain of (R)-[11C]verapamil vs tariquidar plasma concentration” value in data set [2] (C57BL/6N wild-type mice) is recorded as 2.98. The “Hill slope, Kb,brain of [11C]-N-desmethyl-loperamide vs tariquidar plasma concentration” value in data set [2] (C57BL/6N wild-type mice) is 1.44. Moreover, the “tariquidar plasma concentration (mean ± SD)” value in [13] was found to be 3.508 ± 0.427 µM. For the same molecule, the “tariquidar plasma concentration (range)” value in [13] lay within 2802 to 3863 nM. Also, in data set [14], the “unbound fraction in human plasma” value is 0.0063.
In the case of `[3H]C([3H])([3H])NC(=O)C(CCN1CCC(O)(c2ccc(Cl)cc2)CC1)(c1ccccc1)c1ccccc1` [[^3H]-N-desmethyl-loperamide], the “transport ratio (TR), Papp(b–A)/Papp(a–B)” value in data set [10] (Abcb1a-transfected LLC cells, 5 nM substrate, without tariquidar) stood at 27.6 ± 6.5; in data set [11] (ABCB1-transfected LLC cells, 5 nM substrate, without tariquidar), 18.5 ± 1.7. The “TR relative to TR of [3H]verapamil” value in [10] (Abcb1a-transfected cells) was 8.6 times; in data set [11] (ABCB1-transfected cells), 5 times. For the same molecule, the “transport ratio (TR)” value in [15] is listed as 1.6 ± 0.03. In data set [11] (in ABCB1- and Abcb1a-transfected cells (both cell types)), the “transport ratio relative to [3H]verapamil” value fell in the range of 5 to 9 times.

The values above are taken from PMC4566129, “Factors Governing P-Glycoprotein-Mediated Drug–Drug Interactions at the Blood–Brain Barrier Measured with Positron Emission Tomography” (Molecular Pharmaceutics, 2015).
